Laboratory results taken from US10806785B2, “Immunomodulator compounds and methods of use” (Incyte Corporation, priority 2016, dated 2020).

Molecular target: PD-1/PD-L1 (Homo sapiens (Human), UniProt Q9NZQ7)
Experiment: PD-1/PD-L1 binding assay (HTRF)
Outline: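 Fc-tagged human PD-1 (25-167) and His-tagged PD-L1 (19-238), listed as […] and 10 nM final, preincubated 40 min with inhibitors in PBS pH 7.4, 0.05% Tween-20, 0.1% BSA, 1% DMSO, 25 °C. Eu anti-IgG/APC anti-His added, 60 min, 665/620 nm HTRF ratio; IC50 fitted from percent control activity.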

PD-1/PD-L1, sequence (Q9NZQ7 19-238): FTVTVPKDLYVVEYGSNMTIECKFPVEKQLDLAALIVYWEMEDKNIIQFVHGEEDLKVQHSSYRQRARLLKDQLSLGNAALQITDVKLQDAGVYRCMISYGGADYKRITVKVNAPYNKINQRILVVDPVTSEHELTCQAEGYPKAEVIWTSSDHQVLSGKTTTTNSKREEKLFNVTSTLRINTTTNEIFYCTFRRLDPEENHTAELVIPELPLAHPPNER

| Compound | IC50 |
| --- | --- |
| Cn1c(C(=O)Nc2cccc(-c3cccc(NC(=O)c4nc5c(n4C)CCN(C4CCOCC4)C5)c3Cl)c2Cl)nc2c1CCN(C[C@H]1CC[C@H](C(=O)O)CC1)C2 [Example 64, trans-4-((2-(2,2′-dichloro-3′-(1-methyl-5-(tetrahydro-2H-pyran-4-yl)-4,5,6,7-tetrahydro-1H-imidazo[4,5-c]pyridine-2-carboxamido)biphenyl-3-ylcarbamoyl)-1-methyl-6,7-dihydro-1H-imidazo[4,5-c]pyridin-5(4H)-yl)methyl)cyclohexane-1-carboxylic acid] | ≤ 10 nM |
| Cn1c(C(=O)Nc2cccc(-c3cccc(NC(=O)c4nc5c(n4C)CCN(C[C@H]4CC[C@H](C(=O)O)CC4)C5)c3Cl)c2Cl)nc2c1CCN(CCO)C2 [Example 65, trans-4-((2-((2,2′-dichloro-3′-(5-(2-hydroxyethyl)-1-methyl-4,5,6,7-tetrahydro-1H-imidazo[4,5-c]pyridine-2-carboxamido)-[1,1′-biphenyl]-3-yl)carbamoyl)-1-methyl-1,4,6,7-tetrahydro-5H-imidazo[4,5-c]pyridin-5-yl)methyl)cyclohexane-1-carboxylic acid] | ≤ 10 nM |
| C[C@H](O)CN1CCc2c(nc(C(=O)Nc3cccc(-c4cccc(NC(=O)c5nc6c(n5C)CCN(C[C@H]5CC[C@H](C(=O)O)CC5)C6)c4Cl)c3Cl)n2C)C1 [Example 66, trans-4-((2-((2,2′-dichloro-3′-(5-((S)-2-hydroxypropyl)-1-methyl-4,5,6,7-tetrahydro-1H-imidazo[4,5-c]pyridine-2-carboxamido)-[1,1′-biphenyl]-3-yl)carbamoyl)-1-methyl-1,4,6,7-tetrahydro-5H-imidazo[4,5-c]pyridin-5-yl)methyl)cyclohexane-1-carboxylic acid] | ≤ 10 nM |

Second part, the compound after the results:

| IC50 | Compound |
| --- | --- |
| ≤ 10 nM | CN1CCc2c(nc(C(=O)Nc3cccc(-c4cccc(NC(=O)c5nc6c(n5C)CCN(C[C@H]5CC[C@H](C(=O)O)CC5)C6)c4Cl)c3Cl)n2C)C1 [Example 60, trans-4-((2-(2,2′-dichloro-3′-(1,5-dimethyl-4,5,6,7-tetrahydro-1H-imidazo[4,5-c]pyridine-2-carboxamido)biphenyl-3-ylcarbamoyl)-1-methyl-6,7-dihydro-1H-imidazo[4,5-c]pyridin-5(4H)-yl)methyl)cyclohexane-1-carboxylic acid] |
| ≤ 10 nM | Cn1c(C(=O)Nc2cccc(-c3cccc(NC(=O)c4nc5c(n4C)CCN(C[C@H]4CC[C@H](C(=O)O)CC4)C5)c3Cl)c2Cl)nc2c1CCNC2 [Example 61, trans-4-((2-(2,2′-dichloro-3′-(1-methyl-4,5,6,7-tetrahydro-1H-imidazo[4,5-c]pyridine-2-carboxamido)biphenyl-3-ylcarbamoyl)-1-methyl-6,7-dihydro-1H-imidazo[4,5-c]pyridin-5(4H)-yl)methyl)cyclohexane-1-carboxylic acid] |
| ≤ 10 nM | CCN1CCc2c(nc(C(=O)Nc3cccc(-c4cccc(NC(=O)c5nc6c(n5C)CCN(C[C@H]5CC[C@H](C(=O)O)CC5)C6)c4Cl)c3Cl)n2C)C1 [Example 62, trans-4-((2-(2,2′-dichloro-3′-(5-ethyl-1-methyl-4,5,6,7-tetrahydro-1H-imidazo[4,5-c]pyridine-2-carboxamido)biphenyl-3-ylcarbamoyl)-1-methyl-6,7-dihydro-1H-imidazo[4,5-c]pyridin-5(4H)-yl)methyl)cyclohexane-1-carboxylic acid] |
| ≤ 10 nM | Cn1c(C(=O)Nc2cccc(-c3cccc(NC(=O)c4nc5c(n4C)CCN(C[C@H]4CC[C@H](C(=O)O)CC4)C5)c3Cl)c2Cl)nc2c1CCN(CC1CC1)C2 [Example 63, trans-4-((2-(2,2′-dichloro-3′-(5-(cyclopropylmethyl)-1-methyl-4,5,6,7-tetrahydro-1H-imidazo[4,5-c]pyridine-2-carboxamido)biphenyl-3-ylcarbamoyl)-1-methyl-6,7-dihydro-1H-imidazo[4,5-c]pyridin-5(4H)-yl)methyl)cyclohexane-1-carboxylic acid] |
